Data: patent US6624188B1, “Method of treatment with compounds having retinoid-like activity and reduced skin toxicity and lacking teratogenic effects” (Allergan, Inc., priority 1992, dated 2003)
In brackets after ≈: the same amount, converted by molar mass. Where two headings read alike, the source gives them in different places.

How the values were obtained:
female hairless mice = assay type: in vivo; details: for Death/Total: animals died from a group of 5; for % Weight Change: end of 14 day test or at death; for Flaking/scaling grade: scale 0 to +5
Protocol: Specifically, tests to determine skin toxicity were performed on certain examplary compounds in accordance with the present invention, and on certain analogous compounds which lack the R3 substituent in accordance with Formula 1, 2 or 3. A “Two Week Acute Skin Toxicity Study of Multiple Topical Applications in Female Hairless Mice” is conducted as follows: a daily dose (expressed in nanomoles) of the “test compound” is applied to the skin on the back of hairless mice (usually a test group of 5 mice for a given compound). The daily dose of the test compound is applied for 5 consecutive days, followed by two days when the test compound is not administered, and is thereafter administered again for 4 more consecutive days. On the 14th day the test animals if still alive, are sacrificed to perform certain studies and tests. In the meanwhile certain tests and observations are made on a daily basis with respect to body weight and skin condition. Skin condition is graded as “flaking/scaling” and “abrasion” on a scale of 0 to +5 where the various numbers correspond to the following observations.
Results of these tests are summarized in Table 3, where daily dose is expressed in nanomoles, weight loss of the test animals is in percentages at the end of the 14 day test period, or at the time the test animal expired, and mortality is expressed with the number of animals which died from a group of 5.

human sebocyte cultures = experiment: human sebocyte culture 3H-thymidine incorporation (DNA synthesis, anti-proliferative effect); assay type: cell-based; details: human sebocytes, 8 days treatment, FIG. 2
Source text: The retinoid like activity of the compounds used in accordance with the method of treatment of the present invention and of the novel compounds of the invention can be confirmed by several assay procedures. An assay involving human sebocyte cultures measures the inhibition of ^3H-thymidine into cells, and thus measures inhibition of DNA synthesis and thus an anti-proliferative effect on sebocyte (i.e. a sebostatic effect). This assay is also considered a specific assay for effectiveness of a compound as a potential anti-acne drug. The test is conducted as follows.
Face-lift or forehead reduction skins from cosmetic surgeries were used as sources of human sebaceous gland cells (sebocytes).
Isolated sebocytes were plated in type 1 collagen coated-dishes in DMEM/F12 (1:1) medium supplemented with 8% fetal bovine serum, 2% human serum, 10 ng/ml epidermal growth factor, 1 nM cholera toxin, 1 μM hydrocortisone, and penicillin/streptomycin/amphotericin B. Secondary cultures were prepared by plating Dispase dissociated cells in collagen coated 24-well plates.
Sub-confluent secondary cultures were treated with the test compounds or ethanol vehicle every 2-3 days for 8 days in the above medium from which the total serum concentration was reduced to 2% and hydrocortisone was not included. During the last 6 hours of treatment, the cultures were labeled with 2 μCi/ml ^3H-thymidine. DNA from the cells were extracted by thichoroacetic acid and perchloric acid, and assayed for radioactivity by scintillation counting and for content of DNA by the diphenylamine calorimetric method. The results were expressed as CPM/μg DNA, or as per cent of vehicle control which incorporated about 1,000-1,500 cpm/μg DNA.

[1] = test system: tissue transglutaminase (tTGASE) in HL-60 cells; experiment: Tissue Transglutaminase Assay (tTGASE) in HL-60 Cells; assay type: cell-based; details: FIGS. 6-9
Protocol: Other assays in which the retinoid like activity of the compounds used in accordance with the invention are confirmed are the HL-60 transglutaminase induction and HL-60 differentiation assay, the procedures of which are described as follows.
HL-60 cells were grown as a suspension culture in T-162 cm^2 flasks in serum-free RPMI 1640 medium supplemented with insulin (5 μg/ml), transferrin (5 μg/ml), and selenium (3 nM). The cells (1×10^6 cells/well, in 6-well dishes) were treated with serial dilutions of test compounds in the above RPMI 1640 medium which was additionally supplemented with […] dibutyryl cyclic adenosine monophosphate, a component found to be necessary for efficient differentiation of the cells. Ethanol was used in the vehicle control cultures. After 1 days of incubation at 37° C. in a 7.5% CO2 incubator, the cells were collected in a set of tubes and pelleted by centrifugation. The cells were lyzed in a buffer containing 20 mM Tris-HCl, pH 7.5, 1 mM EDTA, and 0.5% Triton X-100. An aliquot of the cell lysate was assayed for tTGASE activity in a reaction mixture containing 20 mM Tris-HCl, pH 7.5, 5 mM CaCl2, 2 mg/ml dimethylcasein, 15 mM B-mercaptoethanol and 50 μCi/ml [2,3-^3H] putrescine dihydrochloride. The reaction was carried out for 60 minutes in a 37° C. shaking water bath. The reaction was stopped by an addition of 10% trichloroacetic acid containing 0.1% putrescein. An aliquot of the stopped reaction mixture was spotted on Whatman 3 MM filter discs. The filter discs, along with the control blank filter discs, were washed twice with 5% trichloroacetic acid containing 0.1% putrescein and twice with methanol. After drying under a heat lamp, the radioactivity in the filter discs was determined by scintillation counting. An aliquot of the cell lysates was also assayed for […] by the Bradford method (Bio-Rad). After subtracting the radioactivity from the control blank filter discs, the data were calculated and expressed as pmol/min/mg protein.
As is well understood in the art, induction of tranglutaminase activity in the just-described assay is an early marker of retinoid like activity.

[2] = test system: limb bud mesenchymal cells; experiment: inhibition of chondrogenesis in high-density spot cultures of limb bud mesenchymal cells; assay type: cell-based; details: Mus musculus; limb bud mesenchymal cell spot cultures, terminated 96 hours after plating; read-out: IC50 (concentration which inhibited chondrogenesis by 50%)
Source text: In an in vitro bioassay which measures inhibition of chondrogenesis (bone formation) in […] as a classic measure of teratogenecity the results shown in Table 2 were obtained. The assay is described as follows:
High-density “spot” cultures of limb bud mesenchymal cells were used to compare the ability of various concentrations of test drugs to suppress chondrogenic differentiation as a bioassay. Forelimb buds of mouse embryos on day 12 of gestation (54±2 somites) were dissociated in a trypsin-EDTA solution, and the resultant single-cell suspension was plated as 20-μl spots (200,000 cells/spot) on plastic culture dishes. Retinoid concentrations ranging from 0.3 ng/ml to 3 μg/ml (1 nM-10 μM) were added to the culture medium (Eagle's MEM+10% fetal bovine serum, GIBCO) 24 hours after initial plating. […]
The cultures were terminated 96 hours after plating, at which time the medium was removed and the cells were fixed for 1 hour in 10% formalin containing 0.5% cetylpyridinium chloride. The cultures were rinsed in acetic acid and stained for 1 hour in 0.5% Alcian blue solution at pH 1.0, differentiated in 3% acetic acid, and then dehydrated in ethanol and scored for chondrogenesis under the microscope. […] The number of cartilage nodules stained in the whole spot, mean number of nodules, and standard deviations were calculated for four replicate cultures per treatment. […]

[3] = pharmacokinetic study, drug concentration in maternal plasma and embryo after oral intubation; assay type: in vivo; details: mice, 10mg/kg dose, FIG. 1
Protocol: FIG. 1 is a graph showing the concentration of compound AGN 191701 in nanograms per ml, or nanograms per gram as indicated on the chart, in the plasma and embryo of mice at various times after oral intubation of a single dose of 10 mg/kg of the compound.
In contrast, the teratogenecity of prior art compound AGN 191183 is so high that even an undetectably low concentration of the drug already causes defective embryos.

gestating ICR mice = experiment: in vivo teratology study, single oral dose on day 11 of gestation; parameters: species or system mouse
Protocol: The methodology of the study is described as follows:
ICR mice (Ace Animals, Boyertown, Pa.) were used. Mature male and virgin female ICR mice were housed in environmentally controlled rooms and acclimatized to a 12 hour light/dark cycle (light cycle 6 A.M. to 6 P.M.) for 2 weeks prior to use. All animals were maintained on Purina Lab Chow and tap water ad libitum. A group of 3-4 females was caged with a single male of proven fertility for 4 hours. Presence of a vaginal plug immediately afterward was regarded as evidence of successful mating, and this day was designated as day 0 of gestation.
[…] All animals were killed by cervical dislocation under mild ether anesthesia on day 17 of gestation. Upon laparotomy, the fetuses were examined for external malformations and weighed; one-half of each litter was then fixed in 95% ethanol and processed for staining of the skeleton by the rapid, alizarin red-S dye method. These preparations were examined under a dissection microscope to screen for abnormalities in the axial and the appendicular skeleton. The other half of each litter was fixed in Bouin's solution and examined by freehand razor serial sectioning to screen for anomalies of the brain, face, and palate.
Differences in dose-related incidence of malformations and resorptions were assessed by computing percentages of affected conceptuses among total implantation sites. The groups were compared statistically by a method based on Student's t-tests of arcs in square root transformed percentages. Values at 0.05 probability level were considered significant. The median effective dose was calculated by logarithmic curve fitting of the dose-response data.

[4] = female, ICR, mouse, in vivo, po, 1 mg/kg, 17 day of gestation
[5] = female, ICR, mouse, in vivo, po, 10 mg/kg, 17 day of gestation
[6] = female, ICR, mouse, in vivo, po, 100 mg/kg, 17 day of gestation
[7] = daily dose 75 nanomoles topical
[8] = daily dose 124 nanomoles topical
[9] = daily dose 1240 nanomoles topical
[10] = single oral dose 1 mg/kg, day 11 of gestation, ICR mice
[11] = single oral dose 10 mg/kg, day 11 of gestation, ICR mice
[12] = single oral dose 100 mg/kg, day 11 of gestation, ICR mice

Compound: CCOC(=O)c1ccc(/C=C(\C)c2cc(C(C)(C)C)ccc2C)cc1 [AGN191544, Ethyl 4-[(E)-2-(2-Methyl-5-tert-butylphenyl)propen-1-yl]benzoate]
- Death/Total (female hairless mice; daily dose 800 nanomoles topical): 0/5

Compound: C/C(=C\c1ccc(C(=O)O)s1)c1cc2c(cc1C)C(C)(C)CCC2(C)C [AGN 191659, 5-[(E)-2-(5,6,7,8-Tetrahydro-3,5,5,8-pentamethylnaphthalen-2-yl)propen-1-yl]-2-thiophenecarboxylic Acid]
- inhibition of 3H-thymidine incorporation (effectiveness in sebocyte assay) (human sebocyte cultures): effective
- induction of transglutaminase activity [1]: active

Compound: CCOC(=O)c1ccc(/C=C(\C)c2cc3c(cc2C)OC(C)(C)CC3(C)C)cc1 [AGN191549, Ethyl 4-[(E)-2-(2,2,4,4,7-Pentamethyl-chroman-6-yl)propen-1-yl]-benzoate]
- Death/Total (female hairless mice; daily dose 300 nanomoles topical): 0/5

Compound: C/C(=C\c1cc(C(=O)O)cs1)c1cc2c(cc1C)C(C)(C)CCC2(C)C [AGN 191701, 2-[(E)-2-(5,6,7,8-Tetrahydro-3,5,5,8,8-pentamethylnaphthalen-2-yl)propen-1-yl]thiophene-4-carboxylic Acid]
- IC50 [2]: 19 µg/mL (≈ 51.6 µM)
- concentration of the drug in the maternal plasma and in the embryo [3]: present in substantial concentration
- inhibition of 3H-thymidine incorporation (effectiveness in sebocyte assay) (human sebocyte cultures): effective
- induction of transglutaminase activity [1]: active
- times less teratogenic than AGN 191183 (gestating ICR mice; female, ICR, mouse, in vivo, 17 day of gestation): approximately 10^4 times
- # Litters Normal (gestating ICR mice; [4]): 1
- Teratogenic Effects % Cleft Palate (gestating ICR mice; [4]): 0%
- Teratogenic Effects % Limb Defects (gestating ICR mice; [4]): 0%
- Teratogenic Effects % Resorbed (gestating ICR mice; [4]): 18%
- # Litters Normal (gestating ICR mice; [5]): 3
- Teratogenic Effects % Cleft Palate (gestating ICR mice; [5]): 0%
- Teratogenic Effects % Limb Defects (gestating ICR mice; [5]): 0%
- Teratogenic Effects % Resorbed (gestating ICR mice; [5]): 14%
- # Litters Normal (gestating ICR mice; [6]): 2
- Teratogenic Effects % Cleft Palate (gestating ICR mice; [6]): 19%
- Teratogenic Effects % Limb Defects (gestating ICR mice; [6]): 22%
- Teratogenic Effects % Resorbed (gestating ICR mice; [6]): 2%
- teratogenic effect (in words) (gestating ICR mice; mouse, in vivo): very little teratogeneic effect

Compound: C/C(=C\c1ccc(C(=O)O)cc1)c1cc2c(cc1Cl)C(C)(C)CCC2(C)C [AGN 191642, 4[(E)-2-(3-Chloro-5,6,7,8-tetrahydro-5,5,8,8-tetramethylnaphthalen-2-yl)propen-1-yl]benzoic Acid]
- induction of transglutaminase activity [1]: active

Compound: C/C(=C\c1ccc(C(=O)O)cc1)c1cc2c(cc1C)C(C)(C)CCC2(C)C [AGN 191440]
- induction of transglutaminase activity [1]: active
- Death/Total (female hairless mice; [7]): 0/5
- % Weight Change (female hairless mice; [7]): 3.1%
- Flaking/scaling grade (female hairless mice; [7]): +2 (Slight (˜25% or less))
- Death/Total (female hairless mice; [8]): 0/5
- % Weight Change (female hairless mice; [8]): −2.7%
- Flaking/scaling grade (female hairless mice; [8]): +2 (Slight (˜25% or less))
- Death/Total (female hairless mice; [9]): 3/5
- % Weight Change (female hairless mice; [9]): −19.5%
- Flaking/scaling grade (female hairless mice; [9]): +4 (Moderate (greater than ˜50%, less than ˜75%))
- times less teratogenic than AGN 191183 (gestating ICR mice; comparison of doses producing teratogenic effects in ICR mice): approximately 100 times
- # Litters Normal (gestating ICR mice; [10]): 5
- Teratogenic Effects % Cleft Palate (gestating ICR mice; [10]): 13%
- Teratogenic Effects % Limb Defects (gestating ICR mice; [10]): 17%
- Teratogenic Effects % Resorbed (gestating ICR mice; [10]): 19%
- # Litters Normal (gestating ICR mice; [11]): 1
- Teratogenic Effects % Cleft Palate (gestating ICR mice; [11]): 88%
- Teratogenic Effects % Limb Defects (gestating ICR mice; [11]): 75%
- Teratogenic Effects % Resorbed (gestating ICR mice; [11]): 2%
- # Litters Normal (gestating ICR mice; [12]): 0
- Teratogenic Effects % Resorbed (gestating ICR mice; [12]): 100%

Compound: CCOC(=O)c1ccc(/C=C(\C)c2cc3c(cc2C)C(C)(C)CCC3(C)C)cc1 [AGN191422, Ethyl 4-[(E)-2-(5,6,7,8-Tetrahydro-3,5,5,8,8-pentamethylnaphthalen-2-yl)propen-1-yl]benzoate]
- Death/Total (female hairless mice; daily dose 60 nanomoles topical): 0/5
- Death/Total (female hairless mice; daily dose 64 nanomoles topical): 0/5
